Assay results as given in patent US20240246940A1, “HETEROARYL DERIVATIVE COMPOUND AND USE THEREOF” (VORONOI INC., priority 2021, published 2024).

How the values were obtained:
[1] = tested on: BT-474 cells (HER2 overexpressing cell line); experiment: BT-474 cell proliferation inhibitory activity (CellTiter-Glo, 120 hours); assay type: cell-based; conditions: Homo sapiens
Protocol: To evaluate the cell proliferation inhibitory activity of the compound according to the present invention on HER2 and EGFR kinases, the following method was performed using HER2 overexpressing cell lines (SK-BR-3, BT-474, and N-87) and EGFR expressing cell line (HaCaT).
McCOY'S 5A supplemented with 10% FBS was used for SK-BR-3 cells, RPMI-1640 medium supplemented with 20% FBS was used for BT-474 cancer cells, and RPMI-1640 medium supplemented with 10% FBS was used for N-87 cancer cells. DMEM supplemented with 10% FBS was used for HaCaT cells.
For SK-BR-3 cells, 5000 cells were aliquoted into each well of a white clear bottom 96 well plate (Corning) 48 hours before treatment with the compounds of Examples. For BT-474 cells, 5000 cells were aliquoted into each well of a white clear bottom 96 well plate (Corning) 48 hours before treatment with the compounds of Examples. For N-87 cells, 5000 cells were aliquoted into each well of a white clear bottom 96 well plate (Corning) 24 hours before treatment with the compounds of Examples. For HaCaT cells, 3000 cells were aliquoted into each well of a white clear bottom 96 well plate (Corning) 24 hours before treatment with the compounds of Examples. For SK-BR-3 cells and BT-474 cells, the compounds of Examples were diluted in dimethyl sulfoxide (three-fold dilution, a total of 11 concentrations) and injected each in an amount of 1 μl to a final concentration of 0.2 nM to 10 μM. For N-87 cells, the compounds of Examples were diluted in dimethyl sulfoxide (five-fold dilution, a total of 11 concentrations) and injected each in an amount of 0.5 μl to a final concentration of […] to 5 μM. For HaCaT cells, the compounds of Examples were diluted in dimethyl sulfoxide (three-fold dilution, a total of 11 concentrations) and injected each in an amount of 0.5 μl to a final concentration of 0.8 nM to 45 μM. For the measurement of living cells, the cells were stored at room temperature for 10 minutes using CellTiter-Glo cell viability reagent (Promega) after a certain period of time (SK-BR-3: 120 hours, BT-474: 120 hours, N-87: 72 hours, and HaCaT: 72 hours) post treatment with the compounds of Examples, and the luminescence intensity thereof was measured using a reader (SynergyNeo, Biotek). Each test was repeated three times.
The result values were calculated as a cell growth rate (%) compared to those of the control group. A graph was created using the GraphPad Prism version 5.0 program, and GI50 values were calculated.

[2] = tested on: HaCaT cells (EGFR expressing cell line); experiment: HaCaT cell proliferation inhibitory activity (CellTiter-Glo, 72 hours); assay type: cell-based; conditions: Homo sapiens
Outline: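 GI50 derived from % growth versus control from CellTiter-Glo luminescence, each test run three times. SK-BR-3 and BT-474 are seeded 48 h ahead at 5000/well and dosed at 0.2 nM–10 μM. N-87 (5000/well) gets […]–5 μM and HaCaT (3000/well) gets 0.8 nM–45 μM, both seeded 24 h ahead.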

| Compound | GI50 [1] | GI50 [2] |
| --- | --- | --- |
| C=CC(=O)N1CCC(Oc2cc3c(Nc4cc(-c5ccc(F)c(C(F)F)c5)ccc4OC)ncnc3cc2OC)CC1 [Example 196, 1-(4-((4-((3′-(difluoromethyl)-4′-fluoro-4-methoxy-[1,1′-biphenyl]-3-yl)amino)-7-methoxy-quinazolin-6-yl)oxy)piperidin-1-yl)prop-2-en-1-one] | ≤ 150 nM | 150 to 1000 nM |
| C=CC(=O)N1CCC(Oc2cc3c(Nc4cc(-c5cccc([N+](=O)[O-])c5)ccc4OC)ncnc3cc2OC)CC1 [Example 197, 1-(4-((7-methoxy-4-((4-methoxy-3′-nitro-[1,1′-biphenyl]-3-yl)amino)quinazolin-6-yl)oxy)piperidin-1-yl)prop-2-en-1-one] | 150 to 1000 nM | > 1000 nM |
| C=CC(=O)N1CCC(Oc2cc3c(Nc4cc(-c5c(F)c(F)c(F)c(F)c5F)ccc4OC)ncnc3cc2OC)CC1 [Example 198] | 150 to 1000 nM | > 1000 nM |
| C=CC(=O)N1CC(Oc2cc3c(Nc4cc(-c5cccc(N(C)C)c5)ccc4OC)ncnc3cc2OC)C1 [Example 199, 1-(3-((4-((3′-(dimethylamino)-4-methoxy-[1,1′-biphenyl]-3-yl)amino)-7-methoxy-quinazolin-6-yl)oxy)azetidin-1-yl)prop-2-en-1-one] | ≤ 150 nM | 150 to 1000 nM |
| C=CC(=O)N1CCC(F)(F)C(Oc2cccc3ncnc(Nc4cc(-c5ccc(F)cc5F)ccc4OC)c23)C1 (stereo not shown) [Example 200, 1-(3-((4-((2′,4′-difluoro-4-methoxy-[1,1′-biphenyl]-3-yl)amino)quinazolin-5-yl)oxy)-4,4-difluoro-piperidin-1-yl)prop-2-en-1-one] | ≤ 150 nM | ≤ 150 nM |
| C=CC(=O)N1CCC(F)(F)C(Oc2cc(OC)cc3ncnc(Nc4cc(-c5ccc(F)cc5F)ccc4OC)c23)C1 (stereo not shown) [Example 201, 1-(3-((4-((2′,4′-difluoro-4-methoxy-[1,1′-biphenyl]-3-yl)amino)-7-methoxy-quinazolin-5-yl)oxy)-4,4-difluoro-piperidin-1-yl)prop-2-en-1-one] | ≤ 150 nM | ≤ 150 nM |
| C=CC(=O)N1CCC(Oc2cc3c(Nc4cc(-c5ccc(F)c(C(F)(F)F)c5F)ccc4OC)ncnc3cc2OC)CC1 [Example 202, 1-(4-((4-((2′,4′-difluoro-4-methoxy-3-(trifluoro-methyl)′-[1,1′-biphenyl]-3-yl)amino)-7-methoxy-quinazolin-6-yl)oxy)piperidin-1-yl)prop-2-en-1-one] | ≤ 150 nM | > 1000 nM |
| C=CC(=O)N1CCC(Oc2cc3c(Nc4cc(-c5ccc(F)c(F)c5F)ccc4OC)ncnc3cc2OC)CC1 [Example 203, 1-(4-((7-methoxy-4-((2′,3′,4′-trifluoro-4-methoxy-[1,1′-biphenyl]-3-yl)amino)quinazolin-6-yl)oxy)piperidin-1-yl)prop-2-en-1-one] | ≤ 150 nM | 150 to 1000 nM |
| C=CC(=O)N1CCC(Oc2cc3c(Nc4cc(-c5cccc(C(=O)OC)c5)ccc4OC)ncnc3cc2OC)CC1 [Example 204, methyl 3′-((6-((1-acryloyl-piperidin-4-yl)oxy)-7-methoxy-quinazolin-4-yl)amino)-4′-methoxy-[1,1-biphenyl]-3-carboxylate] | ≤ 150 nM | 150 to 1000 nM |
| C=CC(=O)N1CCC(Oc2cc3c(Nc4cc(-c5cccc(SC)c5)ccc4OC)ncnc3cc2OC)CC1 [Example 205, 1-(4-((7-methoxy-4-((4-methoxy-3′-(methylthio)-[1,1′-biphenyl]-3-yl)amino)quinazolin-6-yl)oxy)piperidin-1-yl)prop-2-en-1-one] | 150 to 1000 nM | > 1000 nM |
| C=CC(=O)N1CCC(Oc2cc3c(Nc4cc(-c5ccc(F)c(C)c5F)ccc4OC)ncnc3cc2OC)CC1 [Example 207, 1-(4-((4-((2′,4′-difluoro-4-methoxy-3′-methyl-[1,1′-biphenyl]-3-yl)amino)-7-methoxy-quinazolin-6-yl)oxy)piperidin-1-yl)prop-2-en-1-one] | ≤ 150 nM | 150 to 1000 nM |
| C=CC(=O)Nc1cccc(-c2ccc(OC)c(Nc3ncnc4cc(OC)c(OC5CCN(C(=O)C=C)CC5)cc34)c2)c1 [Example 208, N-(3′-((6-((1-acryloyl-piperidin-4-yl)oxy)-7-methoxy-quinazolin-4-yl)amino)-4′-methoxy-[1,1′-biphenyl]-3-yl)acrylamide] | 150 to 1000 nM | > 1000 nM |
| C=CC(=O)N1CCC(Nc2cc3c(Nc4cc(-c5cccc(C=O)c5)ccc4OC)ncnc3cc2OC)CC1 [Example 209, 3′-((6-((1-acryloyl-piperidin-4-yl)amino)-7-methoxy-quinazolin-4-yl)amino)-4′-methoxy-[1,1′-biphenyl]-3-carbaldehyde] | ≤ 150 nM | 150 to 1000 nM |
| C=CC(=O)N1CCC(Oc2cc3c(Nc4cc(-c5ccc(F)c(OC)c5F)ccc4OC)ncnc3cc2OC)CC1 [Example 210, 1-(4-((4-((2′,4′-difluoro-3′,4-dimethoxy-[1,1′-biphenyl]-3-yl)amino)-7-methoxy-quinazolin-6-yl)oxy)piperidin-1-yl)prop-2-en-1-one] | ≤ 150 nM | 150 to 1000 nM |
| C=CC(=O)N1CCC(Oc2cc3c(Nc4cc(-c5cccc(OC(F)(F)F)c5)ccc4OC)ncnc3cc2OC)CC1 [Example 211, 1-(4-((7-methoxy-4-((4-methoxy-3′-(trifluoro-methoxy)-[1,1′-biphenyl]-3-yl)amino)quinazolin-6-yl)oxy)piperidin-1-yl)prop-2-en-1-one] | ≤ 150 nM | 150 to 1000 nM |
| C=CC(=O)N1CCC(Oc2cc3c(Nc4cc(-c5cc(OC)c(F)cc5F)ccc4OC)ncnc3cc2OC)CC1 [Example 213, 1-(4-((4-((2′,4′-difluoro-4,5′-dimethoxy-[1,1′-biphenyl]-3-yl)amino)-7-methoxy-quinazolin-6-yl)oxy)piperidin-1-yl)prop-2-en-1-one] | ≤ 150 nM | ≤ 150 nM |
| C=CC(=O)N1CCC(Oc2cc3c(Nc4cc(-c5ccc(F)c(OCC(F)(F)F)c5)ccc4OC)ncnc3cc2OC)CC1 [Example 214, 1-(4-((4-((4′-fluoro-4-methoxy-3′-(2,2,2-trifluoroethoxy)-[1,1′-biphenyl]-3-yl)amino)-7-methoxy-quinazolin-6-yl)oxy)piperidin-1-yl)prop-2-en-1-one] | ≤ 150 nM | > 1000 nM |
| C=CC(=O)N1CCC(Oc2cc3c(Nc4cc(C5=CCOCC5)ccc4OC)ncnc3cc2OC)CC1 [Example 216, 1-(4-((4-((5-(3,6-dihydro-2H-pyran-4-yl)-2-methoxyphenyl)amino)-7-methoxy-quinazolin-6-yl)oxy)piperidin-1-yl)prop-2-en-1-one] | 150 to 1000 nM | 150 to 1000 nM |
| C=CC(=O)N1CC2(CC(Oc3cc4c(Nc5cc(-c6ccco6)ccc5OC)ncnc4cc3OC)C2)C1 [Example 218, 1-(6-((4-((5-(furan-2-yl)-2-methoxyphenyl)amino)-7-methoxy-quinazolin-6-yl)oxy)-2-azaspiro[3.3]heptan-2-yl)prop-2-en-1-one] | > 1000 nM | 150 to 1000 nM |
| C=CC(=O)N1CCC2(CC(Oc3cc4c(Nc5cc(-c6ccco6)ccc5OC)ncnc4cc3OC)C2)C1 (stereo not shown) [Example 220, 1-(2-((4-((5-(furan-2-yl)-2-methoxyphenyl)amino)-7-methoxy-quinazolin-6-yl)oxy)-6-azaspiro[3.4]octan-6-yl)prop-2-en-1-one] | 150 to 1000 nM | 150 to 1000 nM |
| C=CC(=O)N1CC2(CCC(Oc3cc4c(Nc5cc(-c6ccco6)ccc5OC)ncnc4cc3OC)C2)C1 (stereo not shown) [Example 221, 1-(6-((4-((5-(furan-2-yl)-2-methoxyphenyl)amino)-7-methoxy-quinazolin-6-yl)oxy)-2-azaspiro[3.4]octan-2-yl)prop-2-en-1-one] | > 1000 nM | 150 to 1000 nM |
| C=CC(=O)N1CCC(Oc2cc3c(Nc4cc(-c5ccc(F)cc5F)ccc4OC)ncnc3cc2OCC)CC1 [Example 239, 1-(4-((4-((2′,4′-difluoro-4-methoxy-[1,1′-biphenyl]-3-yl)amino)-7-ethoxyquinazolin-6-yl)oxy)piperidin-1-yl)prop-2-en-1-one] | ≤ 150 nM | ≤ 150 nM |
| C=CC(=O)N1CCC(Nc2cc3c(Nc4cc(-c5ccc(F)cc5F)ccc4OC)ncnc3cc2OC(F)F)CC1 [Example 297, 1-(4-((4-((2′,4′-difluoro-4-methoxy-[1,1′-biphenyl]-3-yl)amino)-7-(difluoromethoxy)quinazolin-6-yl)amino)piperidin-1-yl)prop-2-en-1-one] | ≤ 150 nM | ≤ 150 nM |
